We go through 23 molecules from paper PMC13205134, “Design, synthesis, and biological properties exhibited by 1,2,3-triazole based Grp94-selective inhibitors” (European journal of medicinal chemistry, 2025).

Test [1] has as its system Grp94. The test is described as follows: Competitive binding fluorescence polarization (FP) assay, Grp94. The following applies: selectivity over Hsp90α; n.s. = non-selective. As for the experimental part: The Fluorescence Polarization Assay (FP) was performed in 96-well flat-bottom plates (Santa Cruz Biotechnology) with a final volume of 100 μL per well. […] Each well contained 10 nM of Hsp90α or Grp94 (Enzo Biochem Inc.) and 6 nM of FITC-GDA (fluorescent tracer, stock in DMSO). Compounds were tested in triplicate at final concentrations of 100 μM, 10 μM, 1 μM, 0.1 μM and 0.01 μM with each final concentration containing 1 % DMSO. Each plate included control wells containing: (i) buffer only (background polarization), (ii) protein plus tracer (maximum polarization control), and (iii) tracer only (minimum polarization control). Plates were incubated on a rocker at 4 °C for 24 h.
(Fluorescence polarisation rises when a labelled molecule tumbles more slowly, as on binding a larger partner.)

The target in test [2] is Hsp90α (Homo sapiens, UniProt P07900). Kind of test: Competitive binding fluorescence polarization (FP) assay, Hsp90α. The following applies: FITC-GDA tracer, mean of triplicates ± SD, read-out: Apparent Kd Hsp90α. As for the experimental part:
The Fluorescence Polarization Assay (FP) was performed in 96-well flat-bottom plates (Santa Cruz Biotechnology) with a final volume of 100 μL per well. The assay buffer consisted of 20 mM HEPES, 50 mM KCl, 10.5 mM MgCl2, 20 mM Na2MoO4, 0.01 % NP-40 detergent (NP-40), and pH 7.3 with fresh 2 mM dithiothreitol (DTT) and 0.1 mg/mL bovine γ-globulin (BGG). Each well contained 10 nM of Hsp90α or Grp94 (Enzo Biochem Inc.) and 6 nM of FITC-GDA (fluorescent tracer, stock in DMSO). Compounds were tested in triplicate at final concentrations of 100 μM, 10 μM, 1 μM, 0.1 μM and 0.01 μM with each final concentration containing 1 % DMSO. Each plate included control wells containing: (i) buffer only (background polarization), (ii) protein plus tracer (maximum polarization control), and (iii) tracer only (minimum polarization control). Plates were incubated on a rocker at 4 °C for 24 h. Fluorescence polarization (mP units) was measured at 37 °C using excitation and emission wavelengths of 485 and 528 nm, respectively. Apparent Kd values were determined via calculations from the polarization data obtained at which the tracer was displaced by 50 % by the compounds of interest.
[I50] = concentration of free inhibitor at 50% inhibition, [L50] = concentration of free fluorescence labeled ligand molecule at 50% inhibition, [P0] = concentration of free protein at 0% inhibition, K = dissociation constant of the protein−ligand complex.^4

Turning to `COC(=O)c1c(O)cc(O)c(Cl)c1CCn1nncc1Cc1ccccc1CC(C)C` [Compound 49, methyl 3-chloro-4,6-dihydroxy-2-(2-(5-(2-isobutylbenzyl)-1H-1,2,3-triazol-1-yl)ethyl)benzoate], the “Fold selective for Grp94” value in test [1] stood at 6 fold. Moreover, in test [2], the Kd is 0.92 ± 0.05 µM.
Taken in the same sequence, the figures for `COC(=O)c1c(O)cc(O)c(Cl)c1CCn1nncc1Cc1ccc(C)cc1` [Compound 34, methyl 3-chloro-4,6-dihydroxy-2-(2-(5-(4-methylbenzyl)-1H-1,2,3-triazol-1-yl)ethyl)benzoate] were 9 fold and 6.03 ± 0.37 µM.
For `CCCOc1ccccc1Cc1cnnn1CCc1c(Cl)c(O)cc(O)c1C(=O)OC` [Compound 42, methyl 3-chloro-4,6-dihydroxy-2-(2-(5-(2-propoxybenzyl)-1H-1,2,3-triazol-1-yl)ethyl)benzoate], the “Fold selective for Grp94” value in test [1] is on record as 30 fold. Also, the Kd in test [2] was determined as 2.58 ± 0.36 µM.
`CCc1ccccc1Cc1cnnn1CCc1c(Cl)c(O)cc(O)c1C(=O)OC` [Compound 46, methyl 3-chloro-2-(2-(5-(2-ethylbenzyl)-1H-1,2,3-triazol-1-yl)ethyl)-4,6-dihydroxybenzoate]: the “Fold selective for Grp94” value in test [1] stood at 12 fold. Besides, the Kd in test [2] amounted to 9.22 ± 0.48 µM.
Regarding `COC(=O)c1c(O)cc(O)c(Cl)c1CCn1nncc1Cc1ccc(Br)cc1` [Compound 33, methyl 2-(2-(5-(4-bromobenzyl)-1H-1,2,3-triazol-1-yl)ethyl)-3-chloro-4,6-dihydroxybenzoate], the “Fold selective for Grp94” value in test [1] worked out at 5 fold. In addition, the Kd in test [2] was determined as 3.38 ± 0.33 µM.
In the case of `CCCCc1ccccc1Cc1cnnn1CCc1c(Cl)c(O)cc(O)c1C(=O)OC` [Compound 48, methyl 2-(2-(5-(2-butylbenzyl)-1H-1,2,3-triazol-1-yl)ethyl)-3-chloro-4,6-dihydroxybenzoate], in test [1], the “Fold selective for Grp94” value is given as 78 fold. The Kd in test [2] came out at 6.72 ± 0.15 µM.
Consider `COC(=O)c1c(O)cc(O)c(Cl)c1CCn1nnnc1Cc1ccccc1` [Compound 20, methyl 2-(2-(5-benzyl-1H-tetrazol-1-yl)ethyl)-3-chloro-4,6-dihydroxybenzoate], for which the “Fold selective for Grp94” value in test [1] was found to be 3 fold. In test [2], the Kd turned out to be 1.63 ± 0.88 µM.
Take `COC(=O)c1c(O)cc(O)c(Cl)c1CCn1cc(Cc2ccccc2)nn1` [Compound 16, methyl 2-(2-(4-benzyl-1H-1,2,3-triazol-1-yl)ethyl)-3-chloro-4,6-dihydroxybenzoate]: the “Fold selective for Grp94” value in test [1] was “n.s”. Also, the Kd in test [2] was 6.79 ± 0.1 µM.
Regarding `CCOc1ccccc1Cc1cnnn1CCc1c(Cl)c(O)cc(O)c1C(=O)OC` [Compound 40, methyl 3-chloro-2-(2-(5-(2-ethoxybenzyl)-1H-1,2,3-triazol-1-yl)ethyl)-4,6-dihydroxybenzoate], the “Fold selective for Grp94” value in test [1] worked out at 30 fold. The Kd in test [2] was found to be 8.92 ± 0.16 µM.
Turning to `CCCSc1ccccc1Cc1cnnn1CCc1c(Cl)c(O)cc(O)c1C(=O)OC` [Compound 44, methyl 3-chloro-4,6-dihydroxy-2-(2-(5-(2-(propylthio)benzyl)-1H-1,2,3-triazol-1-yl)ethyl)benzoate], in test [1], the “Fold selective for Grp94” value is 78 fold. Moreover, in test [2], the Kd turned out to be 4.39 ± 0.17 µM.
Taken in the same sequence, the figures for `CCSc1ccccc1Cc1cnnn1CCc1c(Cl)c(O)cc(O)c1C(=O)OC` [Compound 43, methyl 3-chloro-2-(2-(5-(2-(ethylthio)benzyl)-1H-1,2,3-triazol-1-yl)ethyl)-4,6-dihydroxybenzoate] were 43 fold and 8.53 ± 1.05 µM.
Take `CCOc1cc(Cl)ccc1Cc1cnnn1CCc1c(Cl)c(O)cc(O)c1C(=O)OC` [Compound 41, methyl 3-chloro-2-(2-(5-(4-chloro-2-ethoxybenzyl)-1H-1,2,3-triazol-1-yl)ethyl)-4,6-dihydroxybenzoate]: the “Fold selective for Grp94” value in test [1] is recorded as 12 fold. The Kd in test [2] was found to be 8.9 ± 0.21 µM.
As to `COC(=O)c1c(O)cc(O)c(Cl)c1CCn1nncc1Cc1ccc(OC)cc1` [Compound 36, methyl 3-chloro-4,6-dihydroxy-2-(2-(5-(4-methoxybenzyl)-1H-1,2,3-triazol-1-yl)ethyl)benzoate], in test [1], the “Fold selective for Grp94” value was 7 fold. The Kd in test [2] is 41.5 ± 7.6 µM.
Taken in the same sequence, the figures for `COC(=O)c1c(O)cc(O)c(Cl)c1CCn1nncc1Cc1cccc(Cl)c1` [Compound 38, methyl 3-chloro-2-(2-(5-(3-chlorobenzyl)-1H-1,2,3-triazol-1-yl)ethyl)-4,6-dihydroxybenzoate] were 3 fold and 6.33 ± 1.33 µM.
For `COC(=O)c1c(O)cc(O)c(Cl)c1CCn1nncc1Cc1ccc(Cl)cc1` [Compound 32, methyl 3-chloro-2-(2-(5-(4-chlorobenzyl)-1H-1,2,3-triazol-1-yl)ethyl)-4,6-dihydroxybenzoate], the “Fold selective for Grp94” value in test [1] is recorded as 9 fold. Also, in test [2], the Kd is 5.7 ± 0.5 µM.
Taken in the same sequence, the figures for `COC(=O)c1c(O)cc(O)c(Cl)c1CCn1nncc1Cc1ccccc1` [Compound 14, methyl 2-(2-(5-benzyl-1H-1,2,3-triazol-1-yl)ethyl)-3-chloro-4,6-dihydroxybenzoate] were 8 fold and 5.24 ± 0.24 µM.
In the case of `COC(=O)c1c(O)cc(O)c(Cl)c1CCn1nncc1Cc1ccccc1CCC(F)(F)F` [Compound 50, methyl 3-chloro-4,6-dihydroxy-2-(2-(5-(2-(3,3,3-trifluoropropyl)benzyl)-1H-1,2,3-triazol-1-yl)ethyl)benzoate], in test [1], the “Fold selective for Grp94” value is 70 fold. For the same molecule, in test [2], the Kd was 4.32 ± 0.39 µM.
Turning to `COC(=O)c1c(O)cc(O)c(Cl)c1CCn1nncc1Cc1ccc(Cl)c(Cl)c1` [Compound 37, methyl 3-chloro-2-(2-(5-(3,4-dichlorobenzyl)-1H-1,2,3-triazol-1-yl)ethyl)-4,6-dihydroxybenzoate], in test [1], the “Fold selective for Grp94” value was found to be 5 fold. The Kd in test [2] came to 6.42 ± 0.45 µM.
As for `COC(=O)c1c(O)cc(O)c(Cl)c1CCn1nncc1Cc1ccccc1Cl` [Compound 39, methyl 3-chloro-2-(2-(5-(2-chlorobenzyl)-1H-1,2,3-triazol-1-yl)ethyl)-4,6-dihydroxybenzoate], the “Fold selective for Grp94” value in test [1] is 2 fold. Moreover, the Kd in test [2] turned out to be 8.32 ± 2.55 µM.
Taken in the same sequence, the figures for `COC(=O)c1c(O)cc(O)c(Cl)c1CCn1nncc1Cc1ccc(F)cc1` [Compound 31, methyl 3-chloro-2-(2-(5-(4-fluorobenzyl)-1H-1,2,3-triazol-1-yl)ethyl)-4,6-dihydroxybenzoate] were 2 fold and 4.72 ± 0.44 µM.
On to `CCc1ccc(Cc2cnnn2CCc2c(Cl)c(O)cc(O)c2C(=O)OC)cc1` [Compound 35, methyl 3-chloro-2-(2-(5-(4-ethylbenzyl)-1H-1,2,3-triazol-1-yl)ethyl)-4,6-dihydroxybenzoate], for which the “Fold selective for Grp94” value in test [1] is “n.s”. Also, in test [2], the Kd amounted to 0.81 ± 0.06 µM.
As to `COC(=O)c1c(O)cc(O)c(Cl)c1CCc1cnnn1Cc1ccccc1` [Compound 10, methyl 2-(2-(1-benzyl-1H-1,2,3-triazol-5-yl)ethyl)-3-chloro-4,6-dihydroxybenzoate], the “Fold selective for Grp94” value in test [1] is on record as “n.s”. The Kd in test [2] came to 0.62 ± 0.04 µM.
As for `COC(=O)c1c(O)cc(O)c(Cl)c1CCn1nncc1Cc1ccccc1SC(C)C` [Compound 45, methyl 3-chloro-4,6-dihydroxy-2-(2-(5-(2-(isopropylthio)benzyl)-1H-1,2,3-triazol-1-yl)ethyl)benzoate], the “Fold selective for Grp94” value in test [1] came to 5 fold. Also, the Kd in test [2] amounted to 2.06 ± 0.87 µM.
